From US20140162980A1, “NOVEL MICROBIOCIDAL DIOXIME ETHER DERIVATIVES” (SYNGENTA CROP PROTECTION LLC, priority 2010, published 2014)

Key:
Phytophthora infestans = experiment: whole plant or invertebrate; format: in vivo; settings: in Solanum lycopersicum, foliar, read-out: control of Phytophthora infestans (percent disease control compared to untreated)
Plasmopara viticola = experiment: whole plant or invertebrate; format: in vivo; settings: foliar, read-out: control of Plasmopara viticola (percent disease control compared to untreated)
[1] = test system: Blumeria graminis f. sp. tritici (Erysiphe graminis f. sp. tritici); experiment: Blumeria graminis f. sp. tritici / wheat / leaf disc preventative (powdery mildew on wheat); format: in vivo; settings: foliar, wheat leaf segments cv. Kanzler, inoculated 1 day after application, assessed 6-8 days after application, read-out: control of Blumeria graminis (percent disease control compared to untreated)
Protocol: Blumeria Graminis f. Sp. Tritici (Erysiphe Graminis f. Sp. Tritici)/Wheat/Leaf Disc Preventative (Powdery Mildew on Wheat):
Wheat leaf segments cv. Kanzler were placed on agar in a 24-well plate and sprayed with the formulated test compound diluted in water at an application rate of 200 ppm. The leaf disks were inoculated by shaking powdery mildew infected plants above the test plates 1 day after application. The inoculated leaf disks were incubated at 20° C. and 60% relative humidity under a light regime of 24 h darkness followed by 12 h/12 h (dark/light) in a climate chamber and the activity of a compound was assessed as percent disease control compared to untreated when an appropriate level of disease damage appears on untreated check leaf segments (6-8 days after application). The following compounds gave at least 80% control of Blumeria graminis: […]

[2] = test system: Puccinia recondita f. sp. tritici; experiment: Puccinia recondita f. sp. tritici / wheat / leaf disc preventative (brown rust); format: in vivo; settings: foliar, wheat leaf segments cv Kanzler, inoculated 1 day after application, assessed 7-9 days after application, read-out: control of Puccinia recondita f. sp. tritici, preventative (percent disease control compared to untreated)
Protocol: Puccinia Recondita f. Sp. Tritici/Wheat/Leaf Disc Preventative (Brown Rust): Wheat leaf segments cultivated variety (cv) Kanzler were placed on agar in 24-well plates and sprayed with formulated test compound diluted in water at an application rate of 200 ppm. The leaf disks were inoculated with a spore suspension of the fungus 1 day after application. The inoculated leaf segments were incubated at 19° C. and 75% relative humidity under a light regime of 12/12 h (light/dark) in a climate cabinet and the activity of a compound was assessed as percent disease control compared to untreated when an appropriate level of disease damage appears in untreated check leaf segments (7-9 days after application).

[3] = test system: Puccinia recondita f. sp. tritici; experiment: Puccinia recondita f. sp. tritici / wheat / leaf disc curative (brown rust); format: in vivo; settings: foliar, 200 ppm applied 1 day after inoculation, wheat leaf segments cv Kanzler, assessed 6-8 days after application, read-out: control of Puccinia recondita f. sp. tritici, curative (percent disease control compared to untreated)
Protocol: Puccinia Recondita f. Sp. Tritici/Wheat/Leaf Disc Curative (Brown Rust): Wheat leaf segments cv Kanzler were placed on agar in 24-well plates. The leaf segments were inoculated with a spore suspension of the fungus. The plates were stored in darkness at 19° C. and 75% relative humidity. The formulated test compound diluted in water was applied at an application rate of 200 ppm 1 day after inoculation.

[4] = test system: Phaeosphaeria nodorum (Septoria nodorum); experiment: Phaeosphaeria nodorum (Septoria nodorum) / wheat / leaf disc preventative (glume blotch); format: in vivo; settings: Parastagonospora nodorum, foliar, wheat leaf segments cv Kanzler, inoculated 2 days after application, assessed 5-7 days after application, read-out: control of Phaeosphaeria nodorum (percent disease control compared to untreated)
Protocol: Phaeosphaeria Nodorum (Septoria nodorum)/Wheat/Leaf Disc Preventative (Glume Blotch): Wheat leaf segments cv Kanzler were placed on agar in a 24-well plate and sprayed with formulated test compound diluted in water at an application rate of 200 ppm. The leaf disks are inoculated with a spore suspension of the fungus 2 days after application. The inoculated test leaf disks are incubated at 20° C. and 75% relative humidity under a light regime of 12/12 h (light/dark) in a climate cabinet and the activity of a compound is assessed as percent disease control compared to untreated when an appropriate level of disease damage appears in untreated check leaf disks (5-7 days after application).

Pyrenophora teres = Pyrenophora teres / barley / leaf disc preventative (net blotch); format: in vivo; settings: foliar, barley leaf segments cv Hasso, inoculated two days after application, assessed 5-7 days after application, read-out: control of Pyrenophora teres (disease control compared to untreated)
Protocol: Pyrenophora Teres/Barley/Leaf Disc Preventative (Net Blotch): Barley leaf segments cv Hasso are placed on agar in a 24-well plate and sprayed with formulated test compound diluted in water at an application rate of 200 ppm. The leaf segments are inoculated with a spore suspension of the fungus two days after application of the test solution. The inoculated leaf segments are incubated at 20° C. and 65% relative humidity under a light regime of 12/12 h (light/dark) in a climate cabinet and the activity of a compound is assessed as disease control compared to untreated when an appropriate level of disease damage appears in untreated check leaf segments (5-7 days after application).

Alternaria solani = Alternaria solani / tomato / leaf disc (early blight); format: in vivo; settings: foliar, tomato leaf disks cv. Baby, inoculated 2 days after application, assessed 5-7 days after application, read-out: control of Alternaria solani (percent disease control compared to untreated)
Protocol: Alternaria Solani/Tomato/Leaf Disc (Early Blight): Tomato leaf disks cv. Baby are placed on agar in multiwell plates (24-well format) and sprayed with the formulated test compound diluted in water at an application rate of 200 ppm. The leaf disks are inoculated with a spore suspension of the fungus 2 days after application. The inoculated leaf disks are incubated at 23° C./21° C.

Pythium ultimum = Pythium ultimum / liquid culture (seedling damping off); format: cell-based; settings: Globisporangium ultimum, PDB potato dextrose broth, 24° C., 2-3 days after application, read-out: control of Pythium ultimum (inhibition of growth, photometrically)
Protocol: Pythium Ultimum/Liquid Culture (Seedling Damping Off): Mycelia fragments and oospores of a newly grown liquid culture of the fungus were directly mixed into nutrient broth (PDB potato dextrose broth). After placing a DMSO solution of test compound into a 96 well microtiter plate at an application rate 200 ppm, the nutrient broth containing the fungal mycelia/spore mixture was added. The test plates were incubated at 24° C. and the inhibition of growth was determined photometrically 2-3 days after application.

[5] = test system: Botryotinia fuckeliana (Botrytis cinerea); experiment: Botryotinia fuckeliana (Botrytis cinerea) / liquid culture (gray mould); format: cell-based; settings: Vogels broth, 24° C., 3-4 days after application, read-out: control of Botryotinia fuckeliana (inhibition of growth, photometrically)
Protocol: Botryotinia Fuckeliana (Botrytis cinerea)/Liquid Culture (Gray Mould): Conidia of the fungus from cryogenic storage were directly mixed into nutrient broth (Vogels broth). After placing a DMSO solution of test compound into a 96-well microtiter plate at an application rate 200 ppm, the nutrient broth containing the fungal spores was added. The test plates were incubated at 24° C. and the inhibition of growth was determined photometrically 3-4 days after application.

[6] = test system: Magnaporthe grisea (Pyricularia oryzae); experiment: whole plant or invertebrate; format: in vivo; settings: foliar, read-out: control of Magnaporthe grisea (percent disease control compared to untreated)
[7] = test system: Thanatephorus cucumeris (Rhizoctonia solani); experiment: Thanatephorus cucumeris (Rhizoctonia solani) / liquid culture (foot rot, damping-off); format: cell-based; settings: PDB potato dextrose broth, 24° C., 3-4 days after application, read-out: control of Thanatephorus cucumeris (inhibition of growth, photometrically)
Protocol: Thanatephorus Cucumeris (Rhizoctonia solani)/Liquid Culture (Foot Rot, Damping-Off): Mycelia fragments of a newly grown liquid culture of the fungus are directly mixed into nutrient broth (PDB potato dextrose broth). After placing a DMSO solution of the test compounds into a 96-well microtiter plate at an application rate 200 ppm, the nutrient broth containing the fungal material was added. The test plates were incubated at 24° C. and the inhibition of growth was determined photometrically 3-4 days after application.

Sclerotinia sclerotiorum = Sclerotinia sclerotiorum / liquid culture (cottony rot); format: cell-based; settings: PDB potato dextrose broth, 24° C., 3-4 days after application, read-out: control of Sclerotinia sclerotiorum (inhibition of growth, photometrically)
Protocol: Sclerotinia Sclerotiorum/Liquid Culture (Cottony Rot) Mycelia fragments of a newly grown liquid culture of the fungus are directly mixed into nutrient broth (PDB potato dextrose broth). After placing a (DMSO) solution of test compound into a microtiter plate at an application rate 200 ppm (96-well format) the nutrient broth containing the fungal material is added. The test plates are incubated at 24° C. and the inhibition of growth is determined photometrically 3-4 days after application.

CCC(CO/N=C1\CCCc2ccc(C)nc21)CO/N=C1\CCCc2ccc(C)nc21 [P.10]
≥ 80%: pest or weed control at 200 ppm (Phytophthora infestans) | pest or weed control at 200 ppm (Plasmopara viticola) | pest or weed control at 200 ppm [1] | pest or weed control at 200 ppm [2] | pest or weed control at 200 ppm [3] | pest or weed control at 200 ppm [4] | pest or weed control at 200 ppm (Pyrenophora teres) | pest or weed control at 200 ppm (Alternaria solani) | inhibition at 200 ppm (Pythium ultimum) | inhibition at 200 ppm [5]

Cc1ccc2c(n1)/C(=N/OCCCO/N=C1\CCCc3c(C)cc(C)nc31)CCC2 [P.30]
≥ 80%: pest or weed control at 200 ppm (Phytophthora infestans) | pest or weed control at 200 ppm (Plasmopara viticola) | pest or weed control at 200 ppm [1] | pest or weed control at 200 ppm [2] | pest or weed control at 200 ppm [3] | pest or weed control at 200 ppm [6] | pest or weed control at 200 ppm [4] | pest or weed control at 200 ppm (Pyrenophora teres) | pest or weed control at 200 ppm (Alternaria solani) | inhibition at 200 ppm (Pythium ultimum) | inhibition at 200 ppm [5] | inhibition at 200 ppm [7]

Cc1ccc2c(n1)/C(=N/OCCCO/N=C1\CCCc3c1nc1ccccc1c3C)CCC2 [P.37]
≥ 80%: pest or weed control at 200 ppm (Plasmopara viticola) | pest or weed control at 200 ppm [1] | pest or weed control at 200 ppm [2] | pest or weed control at 200 ppm [3] | pest or weed control at 200 ppm [6] | pest or weed control at 200 ppm [4] | pest or weed control at 200 ppm (Pyrenophora teres) | pest or weed control at 200 ppm (Alternaria solani) | inhibition at 200 ppm (Pythium ultimum) | inhibition at 200 ppm [5] | inhibition at 200 ppm [7] | inhibition at 200 ppm (Sclerotinia sclerotiorum)

Cc1ccc2c(n1)/C(=N/OCC(C)(C)CO/N=C1\CCCc3c1nc1ccccc1c3C)CCC2 [P.38]
≥ 80%: pest or weed control at 200 ppm (Phytophthora infestans) | pest or weed control at 200 ppm (Plasmopara viticola) | pest or weed control at 200 ppm [1] | pest or weed control at 200 ppm [2] | pest or weed control at 200 ppm [3] | pest or weed control at 200 ppm [6] | pest or weed control at 200 ppm [4] | pest or weed control at 200 ppm (Pyrenophora teres) | pest or weed control at 200 ppm (Alternaria solani) | inhibition at 200 ppm (Pythium ultimum) | inhibition at 200 ppm [5] | inhibition at 200 ppm [7] | inhibition at 200 ppm (Sclerotinia sclerotiorum)

Cc1ccc2c(n1)/C(=N/OCC(C)(C)CO/N=C1\CCCc3c(CF)cc(C)nc31)CCC2 [P.44]
≥ 80%: pest or weed control at 200 ppm [1] | pest or weed control at 200 ppm [2] | pest or weed control at 200 ppm [3] | pest or weed control at 200 ppm [6] | pest or weed control at 200 ppm [4] | pest or weed control at 200 ppm (Pyrenophora teres) | inhibition at 200 ppm (Pythium ultimum) | inhibition at 200 ppm [5] | inhibition at 200 ppm (Sclerotinia sclerotiorum)

Cc1ccc2c(n1)/C(=N/OCCCO/N=C1\CCCc3c(C(F)F)cc(C)nc31)CCC2 [P.46]
≥ 80%: pest or weed control at 200 ppm [1] | pest or weed control at 200 ppm [2] | pest or weed control at 200 ppm [3] | pest or weed control at 200 ppm [6] | pest or weed control at 200 ppm [4] | pest or weed control at 200 ppm (Pyrenophora teres) | inhibition at 200 ppm (Pythium ultimum) | inhibition at 200 ppm [5] | inhibition at 200 ppm (Sclerotinia sclerotiorum)

c1c2c(nc3c1CCC/C3=N\OCC1(CO/N=C3\CCCc4cc5c(nc43)CCCC5)CC1)CCCC2 [P.49]
≥ 80%: pest or weed control at 200 ppm (Phytophthora infestans) | pest or weed control at 200 ppm [1] | pest or weed control at 200 ppm [2] | pest or weed control at 200 ppm [6] | pest or weed control at 200 ppm [4] | inhibition at 200 ppm [5] | inhibition at 200 ppm [7] | inhibition at 200 ppm (Sclerotinia sclerotiorum)

c1c2c(nc3c1CCC/C3=N\OCCCO/N=C1\CCCc3cc4c(nc31)CCCC4)CCCC2 [P.51]
≥ 80%: pest or weed control at 200 ppm (Phytophthora infestans) | pest or weed control at 200 ppm [1] | pest or weed control at 200 ppm [2] | pest or weed control at 200 ppm [6] | pest or weed control at 200 ppm [4] | pest or weed control at 200 ppm (Pyrenophora teres) | inhibition at 200 ppm (Pythium ultimum) | inhibition at 200 ppm [5] | inhibition at 200 ppm [7] | inhibition at 200 ppm (Sclerotinia sclerotiorum)
